# Laboratory results published in US20210212937A1, “GLUCONO DELTA-LACTONE FOR TREATMENT OF VAGINAL FUNGAL INFECTIONS” (Gedea Biotech AB, priority 2016, published 2021).
# Columns and labels:
# Candida albicans [1] = assay: Biofilm formation of Candida albicans at different pH (crystal violet); format: cell-based
# Procedure: The biofilm was measured after 24 h and the staining was performed with crystal violet.
# (§1) Yeast strains were grown at 37° C. in complete medium YPD (0.5% (weight/volume) yeast extract, 1% (weight/volume) peptone, 2% (weight/volume) glucose) or minimal medium consisting of YNB (yeast nitrogen base without amino acids and ammonium sulphate, FORMEDIUM™, CYN0505) supplemented with 0.5% (weight/volume) ammonium sulphate, 0.2% (weight/volume) glucose and 100 mM L-proline. If needed 2% (weight/volume) agar was used to solidify media. The liquid minimal medium (YNB (yeast nitrogen base without amino acids and ammonium sulphate, FORMEDIUM™, CYN0505) supplemented with 0.5% ammonium sulphate, 0.2% (weight/volume) glucose and 100 mM L-proline) was used for biofilm assay (biofilm medium).
# Biofilm was measured in liquid culture as described [K. Scherz et al., G3 (Bethesda), 2014, 4, 1671-1680. I. Serrano-Fujarte et al. Biomed Res Int. 2015; 2015:783639] with some modifications. […] At defined time points crystal violet (HT901-8FOZ; Sigma Aldrich) was added to the media at the final concentration 0.05% In addition, total biomass was measured. […] Total biomass and crystal violet biofilm staining measurements were performed at OD560 with FLUOstar OPTIMA plate reader, BMG LABTECH. […]
# Candida albicans [2] = assay: Biofilm formation in a model of in vivo conditions using GDA pellet; format: cell-based; conditions: C. albicans
# Procedure: as §1
# (§2) Biofilm was measured in liquid culture as described [K. Scherz et al., G3 (Bethesda), 2014, 4, 1671-1680. I. Serrano-Fujarte et al. Biomed Res Int. 2015; 2015:783639] with some modifications. Prior the biofilm assay, yeast cultures were grown in liquid YPD medium for 24 hours until stationary phase cells were then pelleted by centrifugation (1699×g), washed with sterile water and the cells were further inoculated into test biofilm medium (YNB (yeast nitrogen base without amino acids and ammonium sulphate) supplemented with 0.5% ammonium sulphate, 0.2% glucose and 100 mM L-proline pH7.0) at final concentration of 0.2 OD600/ml and incubated in 96-well flat-bottom polystyrene microtiter plates (Sigma Aldrich, Corning® Costar® culture plates, CLS3596-50EA) for 72 hours at 37° C. thermostat. At defined time points crystal violet (HT901-8FOZ; Sigma Aldrich) was added to the media at the final concentration 0.05% In addition, total biomass was measured. […] Total biomass and crystal violet biofilm staining measurements were performed at OD560 with FLUOstar OPTIMA plate reader, BMG LABTECH. […]
# (§3) Samples (4 mL) were taken at fixed time points (1, 2, 3, 4, 5, 6 and 24 h) and new buffer solution (4 mL) was added. The samples were diluted 50 times with biofilm medium (vide supra) and the amount of biofilm formation was measured after 24 h as described above. […]
# Candida glabrata = assay: as above; format: cell-based; conditions: C. glabrata; GDA released from pellet (2.5 g) in pH 3.71 buffer, samples 1-24 h, diluted 50 times
# Procedure: as §1, §2, §3
# C. albicans [3] = assay: Viability of mature biofilm, XTT staining; format: cell-based, Candida albicans
# Procedure: (§4) XXT is a colorimetric assay for quantification of cellular viability, and cytotoxicity. The assay is based on the cleavage of the tetrazolium salt XTT, a conversion that only occurs in viable cells. […] Then the cells were washed 2 times with PBS, after which the XTT reaction mixture was added. After 30 min the optical density measured at 485 nm.
# C. glabrata [4] = assay: Viability of mature biofilm, XTT staining; format: cell-based, Candida glabrata; conditions: 24 h of incubation
# Procedure: as §4
# C. albicans [5] = assay: Cell survival of mature biofilm, serial dilution plating on YPD; format: cell-based, Candida albicans; conditions: 0.5 g/ml, 5 h, 37° C.
# Procedure: (§5) The plated cells were incubated for 24 h at 37° C. and visually analyzed. The cells from the mature biofilm treated with water were used as a control. […] At the concentrations of 0.2 and 0.5 g/ml after 5 h of incubation the cell viability was decreased by about 100 times for both C. albicans and C. glabrata.
# C. glabrata [6] = assay: as above; format: cell-based, Candida glabrata
# Procedure: as §5
# C. albicans [7] = assay: Microfluidics study of biofilm development (cell morphology); format: cell-based, Candida albicans; conditions: 5 h, 1 h hydrolysate of GDA pellet diluted 50 times
# Procedure: To monitor the C. albicans cell morphology we studied the biofilm development also using microscopy and microfluidics. After the yeast cells were inoculated, hyphae started to form within first hour of incubation in the biofilm medium (YNB supplemented with 100 mM proline and 0.2% glucose, pH7.0). […] A sample was taken after 1 h and diluted 50 times with biofilm medium and added to C. albicans.
# Candida sp. = assay: Viability on medium with calcofluor white versus osmotic stabilizer (cell wall damage); format: cell-based; conditions: compared to medium with 0.5M sucrose and to untreated cells
# Candida = assay: Biofilm assay of hydroxylated carboxylic acids; format: cell-based
# Description: Given the importance of formation of biofilm in vulvovaginal Candida infections, a biofilm assay was deemed appropriate to evaluate the effect of hydroxylated carboxylic acid in targeting vulvovaginal Candida infections. […] As biofilm formation is dependent on both pH and the occurrence of alternative carbohydrate sources, it was not surprising to learn that lactic acid provides some effect on the formation of biofilm. Further, also some other hydroxylated C2-C5 carboxylic acids provided similar effects. Their effect is deemed to be related to their acidifying effect, as the stronger acid provided somewhat stronger effects.
# Whereas the effect of other hydroxylated carboxylic acids seemingly only is due to their acidity (lowering the pH hampers the formation of biofilm), the effect of polyhydroxylated C6 carboxylic acids, e.g. gluconic acid, on formation of biofilm is pronounced already at pH<7. Thus, it seems that the effect of polyhydroxylated C6 carboxylic acid, e.g. gluconic acid, on formation of biofilm not merely is related to its acidity, but the compound itself, or more precisely the related δ-lactone thereof, also provides an effect.
smiles,measurement,setting,value
"O=C1O[C@H](CO)[C@@H](O)[C@H](O)[C@H]1O [GDA, glucono δ-lactone]",pH up to which strong effect on biofilm formation is shown,"Candida albicans [1]; C. albicans, 24 h",at least 6
same,Effect on biofilm formation of C. albicans,"Candida albicans [1]; minimal media pH 2.6-6.6, 24 h",strong effects
same,Amount of biofilm formation,"Candida albicans [2]; GDA released from pellet (2.5 g) in pH 3.71 buffer, samples 1-24 h, diluted 50 times",significantly reduces
same,Duration of preventive effect of pellet,"Candida albicans [2]; pellet 2.5 g in pH 3.71 buffer, 37° C.",≥ 24 h
same,Amount of biofilm formation,Candida glabrata,less pronounced
same,"Viability of mature biofilm (XTT, OD 485 nm)",C. albicans [3]; 24 h of incubation,less pronounced
same,"Viability of mature biofilm (XTT, OD 485 nm)",C. albicans [3]; 48 h,clearly seen
same,"Viability of mature biofilm (XTT, OD 485 nm)",C. glabrata [4],strong decrease in viability
same,Decrease of cell viability,C. albicans [5],about 100 times
same,Decrease of cell viability,"C. glabrata [6]; C. glabrata mature biofilm, 0.5 g/ml, 5 h, 37° C.",about 100 times
same,Sensitivity of mature biofilm compared with C. albicans,"C. glabrata [6]; C. glabrata, plating after incubation with GDA",more sensitive
same,Cell morphology,C. albicans [7],most treated cells were planctonic
same,Viability on medium with calcofluor white,Candida sp.,lower viability
O=C(O)[C@H](O)[C@@H](O)[C@H](O)[C@H](O)CO [gluconic acid],pH at which effect on formation of biofilm is already pronounced,Candida,< 7
same,Decrease of formation of biofilm,"Candida; compared to glyceric acid, xylonic acid and citric acid",superior effects
CC(O)C(=O)O (stereo not shown) [lactic acid],Activity in biofilm assay,Candida; targeting vulvovaginal Candida infections,moderately active
